Measured values: US20190364896A1, “SYNERGISTIC WEED CONTROL FROM APPLICATIONS OF PYRIDINE CARBOXYLIC ACID HERBICIDES AND ALS INHIBITORS” (Dow AgroSciences LLC, priority 2014, published 2019)
Read-outs that look alike come from different tables or passages of the source.

Legend:
[1] = tested on: brown mustard (Brassica juncea, BRSJU); assay: Postemergence herbicidal activity, greenhouse trial (visual injury 0-100%); format: in vivo; conditions: bensulfuron 17.5 g ai/ha
[2] = tested on: sunflower (Helianthus annuus, HELAN); assay: as above; format: in vivo
[3] = tested on: wild pansy (Viola tricolor, VIOTR); assay: as above; format: in vivo; conditions: Viola tricolor, post-emergence, read-out: % visual injury Obs
Method in brief: (§1)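 Herbicide mixtures (an EC-formulated compound plus a partner herbicide) are sprayed at 187 L/ha on greenhouse plants at the second or third true leaf stage, with rates in g ae/ha for (a) and g ai/ha for (b).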

[4] = tested on: winter rape (Brassica napus, BRSNW); assay: as above; format: in vivo
[5] = tested on: soybean (Glycine max, GLXMA); assay: as above; format: in vivo; conditions: 100 g ai/ha
Method: (§2) Seeds of the desired test plant species were planted in Sun Gro MetroMix® 306 planting mixture, which typically has a pH of 6.0 to 6.8 and an organic matter content of about 30 percent, in plastic pots with a surface area of 103.2 square centimeters (cm^2). […] The plants were grown for 7-36 days (d) in a greenhouse with an approximate 14-hour (h) photoperiod which was maintained at about 23° C. during the day and 22° C. during the night. Nutrients and water were added on a regular basis and supplemental lighting was provided with overhead metal halide 1000-Watt lamps as necessary. The plants were employed for testing when they reached the second or third true leaf stage.
(§3) Weighed amounts of technical material were dissolved in a volume of 97:3 volume per volume (v/v) acetone/dimethyl sulfoxide (DMSO) to stock solutions. […] The concentrated stock solutions were diluted with an aqueous mixture of 1.5% v/v of Agri-dex crop oil concentrate to provide the appropriate application rates. Compound requirements are based upon a 12 milliliter (mL) application volume at a rate of 187 liters per hectare (L/ha). Spray solutions of the experimental compound mixtures were prepared by adding the stock solutions to the appropriate amount of dilution solution to form a 12 mL spray solution in two-way combinations. Formulated compounds were applied to the plant material with an overhead Mandel track sprayer equipped with 8002E nozzles calibrated to deliver 187 L/ha over an application area of 0.503 square meters (m^2) at a spray height of 18 inches (43 centimeters (cm)) above average plant canopy. Control plants were sprayed in the same manner with the solvent blank. Application rates for component (a) are in g ae/ha, and application rates for component (b) are in g ai/ha.
(§4) The treated plants and control plants were placed in a greenhouse as described above and watered by sub-irrigation to prevent wash-off of the test compounds. After 20-22 d, the condition of the test plants as compared with that of the control plants was determined visually and scored on a scale of 0 to 100 percent where 0 corresponds to no injury and 100 corresponds to complete kill. The condition of the test plants was compared with that of the control plants as determined visually and scored on a scale of 0 to 100 percent, where 0 corresponds to no injury and 100 corresponds to complete kill. Colby's equation was used to determine the herbicidal effects expected from the mixtures.
(§5) Compound 1 was formulated as an EC and was combined with imazamox, imazamethabenz, imazapic, imazapyr or imazethapyr. The mixtures were applied to winter wheat (TRZAW) and/or maize (ZEAMX), and the phytotoxicity of the herbicidal compositions was measured. In addition, the efficacy of the herbicidal compositions on blackgrass (Alopecurus myosuroides, ALOMY), wild oat (Avena fatua, AVEFA), winter rape (Brassica napus, BRSNW), spring rape (Brassica napus, BRSNN), turnip (Brassica rapa, BRSRR), thistle (Cirsium arvense, CIRAR), large crabgrass (Digitaria sanguinalis, DIGSA), pigweed (Amaranthus retrollexus, AMARE), common lambsquarters (Chenopodium album L., CHEAL), poinsettia (Euphorbia heterophylla, EPHHL), ivyleaf morning-glory (Ipomoea hederacea, IPOHE), kochia (Kochia scoparia, KCHSC), wild buckwheat (Polygonum convolvulus, POLCO), grain sorghum (Sorghum vulgare, SORVU), chickweed (Stellaria media, STEME), wild pansy (Viola tricolor, VIOTR), sunflower (Helianthus annuus, HELAN), giant foxtail (Setaria faberi, SETFA), soybean (Glycine max, GLXMA), rutabaga (Brassica napus var. napobrassica, BRSNA) and barnyardgrass (Echinochloa crus-galli, ECHCG) was evaluated.

[6] = tested on: kochia (Kochia scoparia, KCHSC); assay: as above; format: in vivo
Method in brief: as §1

[7] = tested on: pigweed (Amaranthus retroflexus, AMARE); assay: as above; format: in vivo
Method in brief: as §1

[8] = tested on: poinsettia (Euphorbia heterophylla, EPHHL); assay: as above; format: in vivo
Method in brief: (§6)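 Greenhouse-grown plants at the second to third true leaf stage were sprayed with two-way mixtures in 1.5% v/v Agri-dex crop oil concentrate at 187 L/ha; rates in g ae/ha for component (a) and g ai/ha for component (b). Injury scored visually 0–100% versus solvent-blank controls after 20–22 d, with expected mixture effects from Colby's equation.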

[9] = tested on: wild oat (Avena fatua, AVEFA); assay: as above; format: in vivo
Method in brief: as §1

[10] = tested on: grain sorghum (Sorghum vulgare, SORVU); assay: as above; format: in vivo; conditions: 100 g ai/ha
Method in brief: as §1

[11] = tested on: barnyardgrass (Echinochloa crus-galli, ECHCG); assay: as above; format: in vivo
Method in brief: as §1

[12] = tested on: chickweed (Stellaria media, STEME); assay: as above; format: in vivo; conditions: 100 g ai/ha
Method in brief: as §1

[13] = tested on: ivyleaf morning-glory (Ipomoea hederacea, IPOHE); assay: as above; format: in vivo
Method in brief: as §1

[14] = tested on: common lambsquarters (Chenopodium album L., CHEAL); assay: as above; format: in vivo
Method in brief: as §1

[15] = tested on: turnip (Brassica rapa, BRSRR); assay: as above; format: in vivo; conditions: 11.2 g ai/ha
Method: as §2, §3, §4, §5

[16] = tested on: thistle (Cirsium arvense, CIRAR); assay: as above; format: in vivo; conditions: Cirsium arvense, post-emergence, read-out: % visual injury Obs
Method in brief: as §1

[17] = tested on: wild buckwheat (Polygonum convolvulus, POLCO); assay: as above; format: in vivo; conditions: Fallopia convolvulus, post-emergence, 11.2 g ai/ha; read-out: % visual injury Obs
Method in brief: as §1

[18] = tested on: spring rape (Brassica napus, BRSNN); assay: as above; format: in vivo; conditions: 11.2 g ai/ha
[19] = tested on: rutabaga (Brassica napus var. napobrassica, BRSNA); assay: as above; format: in vivo; conditions: 17.5 g ai/ha
Method: as §2, §3, §4, §5

[20] = tested on: blackgrass (Alopecurus myosuroides, ALOMY); assay: as above; format: in vivo; conditions: 17.5 g ai/ha
Method in brief: as §1

[21] = tested on: large crabgrass (Digitaria sanguinalis, DIGSA); assay: as above; format: in vivo; conditions: 17.5 g ai/ha
maize (Zea mays, ZEAMX) = assay: Postemergence crop injury (phytotoxicity), greenhouse trial (visual injury 0-100%)
Method: as §2
(§7) Weighed amounts of technical or formulated material (emulsifiable concentrate (EC) or soluble concentrate (SL)) were dissolved in a volume of 97:3 volume per volume (v/v) acetone/dimethyl sulfoxide (DMSO) to stock solutions. […] The concentrated stock solutions were diluted with an aqueous mixture of 1.5% v/v of Agri-dex crop oil concentrate to provide the appropriate application rates. Compound requirements are based upon a 12 milliliter (mL) application volume at a rate of 187 liters per hectare (L/ha). Spray solutions of the experimental compound mixtures were prepared by adding the stock solutions to the appropriate amount of dilution solution to form a 12 mL spray solution in two-way combinations. Formulated compounds were applied to the plant material with an overhead Mandel track sprayer equipped with 8002E nozzles calibrated to deliver 187 L/ha over an application area of 0.503 square meters (m^2) at a spray height of 18 inches (43 centimeters (cm)) above average plant canopy. Control plants were sprayed in the same manner with the solvent blank. Application rates for component (a) are in g ae/ha, and application rates for component (b) are in g ai/ha.
as §4
(§8) Compound 1 was formulated as an EC and was combined with florasulam, cloransulam, diclosulam, flumetsulam, penoxsulam, or pyroxsulam. Compound 2 was formulated as an EC and was combined with florasulam or pyroxsulam. The mixtures were applied to winter wheat (TRZAW), common rice (ORYSA), maize (ZEAMX), and the phytotoxicity of the herbicidal compositions was measured. In addition, the efficacy of the herbicidal compositions on blackgrass (Alopecurus myosuroides, ALOMY), pigweed (Amaranthus retrollexus, AMARE), wild oat (Avena fatua, AVEFA), common lambsquarters (Chenopodium album L., CHEAL), thistle (Cirsium arvense CIRAR), nutsedge (Cyperus esculentus, CYPES), barnyardgrass (Echinochloa crus-galli, ECHCG), poinsettia (Euphorbia heterophylla, EPHHL), ivyleaf morning-glory (Ipomoea hederacea, IPOHE), kochia (Kochia scoparia, KCHSC), wild buckwheat (Polygonum convolvulus, POLCO), grain sorghum (Sorghum vulgare, SORVU), chickweed (Stellaria media, STEME), wild pansy (Viola tricolor, VIOTR), was evaluated.
(§9) Weighed amounts of technical material were dissolved in a volume of 97:3 volume per volume (v/v) acetone/dimethyl sulfoxide (DMSO) to stock solutions. […] The concentrated stock solutions were diluted with an aqueous mixture of 1.5% v/v of Agri-dex crop oil concentrate to provide the appropriate application rates. Compound requirements are based upon a 12 milliliter (mL) application volume at a rate of 187 liters per hectare (L/ha). […]

[22] = tested on: common rice (Oryza sativa, ORYSA); assay: as above
Method: as §2, §7, §4, §8, §9

[23] = tested on: winter wheat (Triticum aestivum, TRZAW); assay: as above
Method: as §2, §3, §4
Compound 2 was combined with florasulam and applied to winter wheat (TRZAW) and the phytotoxicity of the herbicidal composition was measured. In addition, the efficacy of the herbicidal composition on poinsettia (Euphorbia heterophylla, EPHHL) and […] (Cyperus esculentus, CYPES) was evaluated.
as §9, with “technical or formulated” for “technical”, “material (emulsifiable concentrate (EC) or soluble concentrate (SL))” for “material”, “(L/ha). Spray solutions of the experimental compound mixtures were prepared by adding the stock solutions to the appropriate amount of dilution solution to form a 12 mL spray solution in two-way combinations.” for “(L/ha).”

[24] = tested on: nutsedge (Cyperus esculentus, CYPES); assay: Postemergence herbicidal activity, greenhouse trial (visual injury 0-100%); format: in vivo; conditions: Cyperus, post-emergence, read-out: % visual injury Obs
Method in brief: as §6

COC(=O)c1ccccc1CS(=O)(=O)NC(=O)Nc1nc(OC)cc(OC)n1
% visual injury Obs [1]: 93%
% visual injury Obs ([2]; HELAN, bensulfuron 17.5 g ai/ha): 10%
pest or weed control at 17.5 g/ha ([3]; VIOTR, bensulfuron 17.5 g ai/ha): 0%
% visual injury Obs ([4]; BRSNW, bensulfuron 17.5 g ai/ha): 70%

imazamethabenz
% visual injury Obs ([2]; 100 g ai/ha): 5%
% visual injury Obs [5]: 30%
% visual injury Obs ([4]; 100 g ai/ha): 65%
% visual injury Obs ([6]; 100 g ai/ha): 0%
% visual injury Obs ([7]; 100 g ai/ha): 0%
% visual injury Obs ([8]; 100 g ai/ha): 50%
% visual injury Obs ([9]; 100 g ai/ha): 20%
% visual injury Obs [10]: 0%
% visual injury Obs ([11]; 100 g ai/ha): 5%
% visual injury Obs [12]: 10%
% visual injury Obs ([13]; 100 g ai/ha): 0%
% visual injury Obs ([14]; 100 g ai/ha): 20%

COCc1cnc(C2=NC(C)(C(C)C)C(=O)N2)c(C(=O)O)c1 (centres unmarked) [Imazamox, imazamox]
% visual injury Obs [15]: 70%
pest or weed control at 11.2 g/ha ([16]; 11.2 g ai/ha): 70%
pest or weed control at 11.2 g/ha [17]: 65%
% visual injury Obs [18]: 75%

CCc1cnc(C2=NC(C)(C(C)C)C(=O)N2)c(C(=O)O)c1 (centres unmarked) [Imazethapyr, imazethapyr]
pest or weed control at 17.5 g/ha ([3]; 17.5 g ai/ha): 5%
% visual injury Obs [19]: 20%
% visual injury Obs ([4]; 17.5 g ai/ha): 75%
pest or weed control at 17.5 g/ha ([16]; 17.5 g ai/ha): 30%
% visual injury Obs ([9]; 17.5 g ai/ha): 10%
pest or weed control at 17.5 g/ha ([11]; Echinochloa crus-galli, post-emergence, 17.5 g ai/ha, read-out: % visual injury Obs): 70%
% visual injury Obs [20]: 10%
% visual injury Obs [21]: 30%

COc1ncc(F)c2nc(S(=O)(=O)Nc3c(F)cccc3F)nn12 [Florasulam, florasulam]
pest or weed control at 2.5 g/ha ([6]; Bassia scoparia, post-emergence, read-out: % visual injury Obs): 60%
pest or weed control at 1.25 g/ha ([7]; Amaranthus retroflexus, post-emergence, read-out: % visual injury Obs): 75%
% visual injury Obs (maize (Zea mays, ZEAMX); 1.25 g ai/ha): 0%
% visual injury Obs (maize (Zea mays, ZEAMX); 2.5 g ai/ha): 0%
% visual injury Obs ([22]; 1.25 g ai/ha): 0%
% visual injury Obs ([22]; 2.5 g ai/ha): 0%
% visual injury Obs ([23]; 1.25 g ai/ha): 0%
% visual injury Obs ([23]; 2.5 g ai/ha): 0%
pest or weed control at 1.25 g/ha ([8]; Euphorbia heterophylla, post-emergence, read-out: % visual injury Obs): 0%
pest or weed control at 1.25 g/ha [24]: 15%
pest or weed control at 2.5 g/ha [24]: 75%
pest or weed control at 1.25 g/ha ([13]; Ipomoea hederacea, post-emergence, read-out: % visual injury Obs): 98%
pest or weed control at 1.25 g/ha ([14]; Chenopodium album, post-emergence, read-out: % visual injury Obs): 0%
